Key:
Type in all cases: biochemical
T7 RNA Polymerase = T7 RNA Polymerase (Escherichia phage T7, UniProt P00573); conditions: 20 μL transcription system, Cap1 Analog 4 mM, 37° C. 2 to 3 hours
Method: • 1) A plasmid was linearized and the DNA template was purified. • 2) mRNA was synthesized in vitro with 51 types of capping structures of the present disclosure, or without any cap analogues. CleanCap®AG (3′OMe) (Trilink, N-7413) was applied as positive control group, uncapped mRNA was negative control group, and DNAase/RNase-Free water was a blank control group.
The system was incubated for 2 to 3 hours at 37° C. and digested by TURBO DNase for 15 min LiCl was used to precipitate mRNA for at least 30 min, or overnight, mRNA precipitates were then washed with 75% ethanol. After ethanol was quickly volatilized, mRNA was re-solubilized with RNase-Free water. • 3) The transcribed products were purified and the transcription yields were calculated.

mRNA = assay: Capping efficiency of mRNA with different cap analogs by LC-MS; conditions: LC-MS after RNase H cleavage
Method: In a PCR machine, the annealing was performed using the following gradients: • 95° C. for 5 min; 65° C. for 2 min; 55° C. for 2 min; 40° C. for 2 min; 22° C. for 2 min • 5) Pre-treatment of magnetic beads were bound with probes.
100 μL of magnetic beads were placed on a magnetic rack and the preservation solution was removed. 100 μL of 1*BW solution was added, mixed well, and placed on the magnetic rack, and the supernatant was then removed. The washing step was repeated three times. 100 μL of wash A buffer was added, mixed well, and placed on the magnetic rack, and the supernatant was then removed. The washing step was repeated three times. 100 μL of wash B buffer was added, mixed well, and placed on the magnetic rack, and the supernatant was then removed. The washing step was repeated three times. After 120 μL of sample was added, the sample and the magnetic beads solution were incubated for 30 min at room temperature, and they were gently mixed well while incubation. • 6) mRNA was spliced to obtain 5′ end mRNA single stranded sequence and binding with the probe.
20 μL of RNase H (5 U/mL) was added, incubated for 3 hours at 37° C., mixed once every half an hour. 100 μL of 1*BW solution was added, mixed well, and placed on the magnetic rack, and then the supernatant was removed. The washing step was repeated three times. Subsequently, 100 μL of deionized aqueous solution was added, mixed well, and placed on the magnetic rack, and the supernatant was then removed. The washing step was repeated three times. 100 μL of 75% methanol at 80° C. was added, and the mixture was incubated at 80° C. on a heater plate for 3 min, and placed on the magnetic rack, and the supernatant was then pipetted. The sample was dried using an evaporative centrifuge at room temperature for 45 min to 10 μL, and then resuspended in 50 μL of 100 μM EDTA solution in 1% MeOH for LC-MS analysis.
The capping efficiencies of mRNA with different cap analogs were determined by LC-MS, and some compounds of the results were shown in Table 4.

mRNA Decapping Enzyme = assay: Stability of the capped mRNA against the mRNA decapping enzymes
Method: • 1) The capped mRNAs were heated at 65° C. for 10 min and their secondary structures were unfolded. • 2) The concentration of mRNA Deacpping Enzyme was diluted from the original concentration (100 U/uL) to 50 U/uL, 5 U/uL, 0.5 U/uL in a 10-fold gradient dilution ratio. • 3) The capped mRNAs were added to the reaction, and the amount of enzyme in the reaction was 50 U, 5 U, 0.5 U, 0 U, respectively. The mixture was mixed with a pipette, and was incubated at 37° C. for 1 hour.
• 4) The RNA was purified using a LiCl Precipitation method, and then diluted to 500 ng/uL*20 uL for subsequent cell transfection. • 5) The cells were transfected with mRNA, and luciferase expression was detected in the same method as Experiment 2.
In FIG. 1, the luminescence unit of luciferase expressed by mRNA without decapping enzyme treatment (0 U) was 100%, and the percentage of the luminescence unit of luciferase expressed by capped mRNA treated with different concentrations of […] to the luminescence unit of luciferase expressed by capped mRNA without decapping enzyme treatment was calculated.

Chain of T7 RNA Polymerase (P00573 whole entry): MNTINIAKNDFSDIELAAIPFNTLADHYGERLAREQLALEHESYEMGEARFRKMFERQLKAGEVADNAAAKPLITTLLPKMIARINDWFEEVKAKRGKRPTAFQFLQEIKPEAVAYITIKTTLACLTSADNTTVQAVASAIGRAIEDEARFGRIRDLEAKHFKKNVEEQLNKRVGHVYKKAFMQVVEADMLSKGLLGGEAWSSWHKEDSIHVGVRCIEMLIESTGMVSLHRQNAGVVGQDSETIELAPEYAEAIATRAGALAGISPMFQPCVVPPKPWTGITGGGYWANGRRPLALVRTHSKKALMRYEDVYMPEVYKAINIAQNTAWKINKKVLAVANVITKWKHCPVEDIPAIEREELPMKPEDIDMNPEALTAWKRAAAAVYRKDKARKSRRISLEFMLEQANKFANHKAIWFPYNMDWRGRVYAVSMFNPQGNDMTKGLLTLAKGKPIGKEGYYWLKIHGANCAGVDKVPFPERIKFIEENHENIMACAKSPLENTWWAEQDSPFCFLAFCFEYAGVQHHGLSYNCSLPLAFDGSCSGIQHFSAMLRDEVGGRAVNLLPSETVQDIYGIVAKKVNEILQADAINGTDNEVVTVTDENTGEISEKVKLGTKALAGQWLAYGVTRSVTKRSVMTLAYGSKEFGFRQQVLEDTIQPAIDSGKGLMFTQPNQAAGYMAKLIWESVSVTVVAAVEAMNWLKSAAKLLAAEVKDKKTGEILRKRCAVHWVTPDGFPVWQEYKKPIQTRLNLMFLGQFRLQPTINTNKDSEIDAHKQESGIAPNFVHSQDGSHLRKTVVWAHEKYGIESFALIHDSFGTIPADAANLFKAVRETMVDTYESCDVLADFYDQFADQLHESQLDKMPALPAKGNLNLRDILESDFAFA

Row | SMILES | Final product mass obtained from the 20 μL of mRNA transcription system (T7 RNA Polymerase) | Capping efficiency (mRNA) | Stability of capped mRNA against decapping enzyme (FIG. 1) (mRNA Decapping Enzyme; at low concentration of decapping enzyme) | Stability of capped mRNA against decapping enzyme (FIG. 1) (mRNA Decapping Enzyme; when the concentration of decapping enzyme was higher)
1 | COC[C@H]1[C@@H](O)[C@H](n2c[n+](C)c3c(=O)[nH]c(N)nc32)O[C@@H]1COP(=O)(O)OP(=O)(O)CP(=O)(O)OC[C@H]1O[C@@H](n2cnc3c(N)ncnc32)[C@H](OC)[C@@H]1OP(=O)(O)OC[C@H]1O[C@@H](n2cnc3c(=O)[nH]c(N)nc32)[C@H](O)[C@@H]1O [Compound 173] | 118 µg | A (100% > A ≥ 95%) | the same stability as that of N-7413 | a better stability than that of N-7413
2 | CO[C@@H]1[C@H](OP(=O)([O-])OC[C@H]2O[C@@H](n3cnc4c(=O)[nH]c(N)nc43)[C@H](O)[C@@H]2O)[C@@H](COP(=O)(O)OP(=O)(O)OP(=O)(O)OC[C@H]2O[C@@H](n3c[n+](C)c4c(=O)[nH]c(N)nc43)[C@H](O)[C@@H]2CCN2CCOCC2)O[C@H]1n1cnc2c(N)ncnc21 [Compound 633] | 100 µg | B (95% > B ≥ 90%) | – | –

Source: patent US12060385B2, “Compounds for RNA capping and uses thereof” (GUANGZHOU HENOVCOM BIOSCIENCE CO., LTD., priority 2022, dated 2024)
